# Data published in ChEMBL document CHEMBL4411318, “Discovery of a Series of 2'-α-Fluoro,2'-β-bromo-ribonucleosides and Their Phosphoramidate Prodrugs as Potent Pan-Genotypic Inhibitors of Hepatitis C Virus” (J Med Chem, 2019).
# What was measured:
# [1] = Cytotoxicity against human CCRF-CEM assessed reduction in cell viability after 4 days by MTT assay; assay type: cell-based; details: CCRF-CEM cells
# Huh-7 = assay: Cytotoxicity against human HuH7 cells assessed reduction in cell viability after 3 to 5 days by cellular ribosomal RNA amplification assay
# Vero = assay type: cell-based; details: chlorocebus sabaeus, 72 h
# [2] = biological target: RNA-directed RNA polymerase (Hepacivirus hominis) (UniProt O39930); details: Hepatitis C virus subtype 1b
# Description: Inhibition of NS5B polymerase in wild type HCV genotype 1b infected in human Huh7 replicon cells after 5 days by RT-PCR assay
# [3] = Cytotoxicity against human HuH7 cells assessed reduction in cell viability after 3 to 5 days by MTT assay; assay type: cell-based, Huh-7
# [4] = Cytotoxicity against human PBMC assessed reduction in cell viability after 5 days by MTT assay; assay type: cell-based; details: PBMC
# [5] = biological target: DNA-directed RNA polymerase, mitochondrial (Homo sapiens, UniProt O00411); assay: Substrate activity at human POLRMT assessed as 5-radiolabled RNA/DNA incorporation levels at 100 uM after 2 hrs by PAGE analysis; assay type: ADME
# in vitro = details: human, liver microsomes
# Description: Intrinsic clearance in human liver measured from intrinsic clearance in human liver microsomes in presence of NADPH regenerating system by LC/MS/MS analysis
# Chain of RNA-directed RNA polymerase (Hepacivirus hominis) (O39930 1-591): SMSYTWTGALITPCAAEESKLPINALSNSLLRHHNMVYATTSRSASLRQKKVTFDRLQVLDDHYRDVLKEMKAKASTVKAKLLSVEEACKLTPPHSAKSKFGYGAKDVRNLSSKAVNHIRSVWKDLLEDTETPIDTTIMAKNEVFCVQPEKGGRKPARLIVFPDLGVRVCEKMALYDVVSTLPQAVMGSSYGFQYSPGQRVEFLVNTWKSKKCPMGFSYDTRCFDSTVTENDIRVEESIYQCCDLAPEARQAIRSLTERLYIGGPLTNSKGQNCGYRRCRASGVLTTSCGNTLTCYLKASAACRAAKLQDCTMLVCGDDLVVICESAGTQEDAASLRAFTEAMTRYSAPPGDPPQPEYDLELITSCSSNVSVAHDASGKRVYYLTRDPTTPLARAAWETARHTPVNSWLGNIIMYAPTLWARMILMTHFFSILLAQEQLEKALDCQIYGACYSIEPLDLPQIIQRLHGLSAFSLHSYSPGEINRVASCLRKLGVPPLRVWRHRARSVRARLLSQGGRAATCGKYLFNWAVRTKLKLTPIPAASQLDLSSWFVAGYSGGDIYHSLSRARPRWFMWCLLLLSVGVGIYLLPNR
# Chain of DNA-directed RNA polymerase, mitochondrial (O00411 whole entry): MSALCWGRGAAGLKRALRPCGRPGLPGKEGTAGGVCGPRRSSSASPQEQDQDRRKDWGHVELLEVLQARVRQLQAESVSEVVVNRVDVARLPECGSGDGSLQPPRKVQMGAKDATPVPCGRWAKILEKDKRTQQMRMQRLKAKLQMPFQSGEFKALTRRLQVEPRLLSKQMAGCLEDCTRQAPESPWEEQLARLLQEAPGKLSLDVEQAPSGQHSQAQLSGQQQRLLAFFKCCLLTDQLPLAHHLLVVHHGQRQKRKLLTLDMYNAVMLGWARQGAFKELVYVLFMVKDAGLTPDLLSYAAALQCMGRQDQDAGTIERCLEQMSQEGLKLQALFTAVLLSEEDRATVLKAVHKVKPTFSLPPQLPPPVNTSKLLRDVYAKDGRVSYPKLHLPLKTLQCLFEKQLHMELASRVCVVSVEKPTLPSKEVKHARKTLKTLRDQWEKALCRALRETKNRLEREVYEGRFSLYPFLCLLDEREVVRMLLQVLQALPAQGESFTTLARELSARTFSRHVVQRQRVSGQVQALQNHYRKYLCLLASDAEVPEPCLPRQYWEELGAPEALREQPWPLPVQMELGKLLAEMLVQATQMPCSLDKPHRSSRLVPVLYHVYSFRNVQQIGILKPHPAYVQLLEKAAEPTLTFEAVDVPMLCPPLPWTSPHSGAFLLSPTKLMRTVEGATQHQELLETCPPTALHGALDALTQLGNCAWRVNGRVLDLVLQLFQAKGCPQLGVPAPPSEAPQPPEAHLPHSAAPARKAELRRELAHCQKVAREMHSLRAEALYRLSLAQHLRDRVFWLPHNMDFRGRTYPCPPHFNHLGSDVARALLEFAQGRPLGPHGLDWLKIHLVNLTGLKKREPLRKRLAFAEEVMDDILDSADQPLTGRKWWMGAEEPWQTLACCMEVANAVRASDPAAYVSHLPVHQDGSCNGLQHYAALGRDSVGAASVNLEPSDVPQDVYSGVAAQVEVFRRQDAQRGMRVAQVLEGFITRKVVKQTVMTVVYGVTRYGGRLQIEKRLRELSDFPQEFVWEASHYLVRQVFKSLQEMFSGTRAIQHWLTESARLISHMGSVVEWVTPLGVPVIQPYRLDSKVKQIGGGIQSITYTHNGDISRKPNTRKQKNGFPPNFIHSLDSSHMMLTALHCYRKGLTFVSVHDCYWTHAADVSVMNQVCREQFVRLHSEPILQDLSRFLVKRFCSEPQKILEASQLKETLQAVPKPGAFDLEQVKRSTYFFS
smiles,measurement,setting,value
Nc1nc2c(ncn2[C@@H]2O[C@H](CO)[C@@H](O)[C@]2(F)Br)c(=O)[nH]1,CC50 at 96 h,[1],> 100 µM
same,CC50,Huh-7,> 10 µM
same,CC50,Vero,> 100 µM
same,EC90,[2],> 10 µM
Nc1ccn([C@@H]2O[C@H](CO)[C@@H](O)[C@]2(F)Br)c(=O)n1,CC50 at 96 h,[1],> 100 µM
same,CC50,Huh-7,> 10 µM
same,CC50,Vero,> 100 µM
same,EC90,[2],9.5 µM
CC(C)OC(=O)[C@H](C)NP(=O)(OC[C@H]1O[C@@H](n2cnc3c(=O)[nH]c(N)nc32)[C@](F)(Br)[C@H]1O)Oc1ccccc1 (some centres undefined),CC50 at 96 h,[1],> 100 µM
same,EC90,[2],1.8 µM
CC(C)OC(=O)[C@H](C)NP(=O)(OC[C@H]1O[C@@H](n2cnc3c(N)ncnc32)[C@](F)(Br)[C@H]1O)Oc1ccccc1 (some centres undefined),CC50,[3],> 10 µM
same,CC50 at 96 h,[1],> 100 µM
same,CC50 at 120 h,[4],> 100 µM
C[C@@]1(O)[C@H](O)[C@@H](COP(=O)(O)OP(=O)(O)OP(=O)(O)O)O[C@H]1n1ccc(=O)[nH]c1=O,Activity,[5],9.8%
"CC(C)OC(=O)[C@H](C)NP(=O)(OC[C@H]1O[C@@H](n2ccc(N)nc2=O)C(F)(Br)C1O)Oc1ccccc1 (single isomer, unassigned)",CC50 at 96 h,[1],> 100 µM
same,CC50,Huh-7,> 10 µM
same,CC50,Vero,> 100 µM
same,EC90,[2],1.8 µM
"Nc1ncnc2c1ncn2[C@@H]1O[C@H](CO)C(O)C1(F)Br (single isomer, unassigned)",CC50 at 96 h,[1],> 100 µM
same,CC50,Huh-7,> 10 µM
same,CC50,Vero,> 100 µM
same,EC90,[2],> 10 µM
O=C(O)Cc1ccccc1Nc1c(Cl)cccc1Cl [DICLOFENAC],CLint scaled,in vitro,6.98 L/h/kg
O=c1ccn([C@@H]2O[C@H](COP(=O)(O)OP(=O)(O)OP(=O)(O)O)[C@@H](O)[C@H]2O)c(=O)[nH]1 [URIDINE TRIPHOSPHATE],Activity,[5],100%
